Measurements reported in patent US9403806B1, “Cognition enhancing compounds and compositions, methods of making, and methods of treating” (NeuroSolis, Inc., priority 2010, dated 2016).
Counter-ions that a name gives are not always drawn.

How the values were obtained:
[1] = Blood and brain concentrations (rats), oral gavage; type: in vivo, Long-Evans Hooded rats; conditions: rat, 10 mg/kg po, 1 hr, relative to MCD-386 = 1.00
Protocol: Long-Evans Hooded rats (Charles River: male, 250-350 g) were dosed with solutions of test compounds in PBS by oral gavage. At the desired time after dosing, the animals were anesthetized with isoflurane, and then euthanized by cervical dislocation. Blood was obtained by cardiac puncture, transferred to a 1.5 mL microcentrifuge tube containing 15U Heparin, and the plasma recovered after centrifugation. Brains were dissected, weighed, immediately chilled to 4° C., and homogenized using a PowerGen 125 homogenizer in five volumes of ice-cold 2% formic acid. Proteins were precipitated from plasma and brain homogenate with two and five volumes respectively of ice-cold 2% formic acid and clarified by centrifugation. The supernatant was ultra-filtered by centrifugation through a 3K MWCO spin column (Pall Life Sciences), following the manufacturer's instructions. The concentration of compound in the ultra-filtrate was subjected to reverse-phase liquid chromatography using a 150×2.1 mm Agilent C8 reverse-phase column on a Shimadzu Prominence LC, eluting the compounds with a gradient of 2% to 50% of acetonitrile+0.1% formic acid for compound MI-50,382, or an isocratic flow of 2% acetonitrile+0.1% formic acid for the rest of the compounds listed. The concentration of the compound in the column effluent was measured using an Applied Biosystems API-3200 triple quadrupole mass spectrometer equipped with an electrospray sample injection system. The counts of the characteristic parent and product ions of each test compound were converted to concentration units by comparison with a standard calibration curve.

[2] = Metabolites in serum and urine of dosed rats (LC-MS); type: in vivo; conditions: rat serum or urine, 10 mg/kg po
Protocol: Oxadiazoles disclosed herein as well as other oxadiazoles were investigated to determine the formation of metabolites. Animals were dosed, blood taken, serum prepared, serum proteins precipitated and ultrafiltrates prepared as described in Example 6. In separate experiments, urine was collected from rats for 16-24 hours after dosing, using standard metabolic cages. The urine container and collected urine were maintained at 4° C. Urine was lyophilized, taken back into water. The uftrafiltrate was prepared by adding formic acid to a final concentration of 1% to the urine samples, then filtered through a 0.2 um nylon membrane. The ultrafiltrate was subjected to LC-MS analysis. Instead of measuring the product ions in Q3, manual Q1 scans of the liquid chromatograph were undertaken, seeking parent ions of potential metabolites of the compounds. The criteria for identifying metabolites were as follows: (1) the ion should be present in the sera or urines of dosed rats, but not in sera or urines from non-dosed rats (2) the ion should be identifiable as a metabolic derivative of the dosed compound (e.g. loss of a functional chemical moiety, addition of a hydroxyl group or a glucuronic acid moiety, etc). Metabolites were determined not to be present if no compound meeting the above criteria could be detected in serum or urine.

[3] = tested on: salivary gland inositol phosphate; experiment: In vivo tissue inositol phosphate signaling pathway activation, salivary gland; set-up: species or system Long Evans Hooded rats; conditions: rat; for block of increase in salivary gland inositol phosphate caused by Compound 3: Compound 3 1 mg/kg; for inhibition of salivary gland inositol phosphate response to MCD-386: MCD-386 50 mg/kg, antagonist 0.3 mg/kg (FIG. 7)
Protocol: (§1) Experimental compounds or drug substances were administered using standard techniques to Long Evans Hooded rats weighing 225 to 350 grams, and which had been pretreated with a subcutaneous injection of lithium chloride at a suitable dose between 3 and 10 mmoles per kg. At suitable times the animals were briefly anesthetized using 5% isoflurane and euthanized by decapitation. The brains and submaxillary salivary glands were rapidly dissected out, and the hippocampuses were dissected from the brains. The dissected tissues were homogenized in a suitable volume of ice-cold phosphate-buffered saline containing 10 mM lithium chloride, pH7.4, using a tissue homogenizer, and used immediately or frozen in aliquots at −80 deg C. for future use. The concentration of inositol-1-phosphate was determined in the homogenates using the IPOne TR-FRET assay (CisBio cat no 621PAPEB), following the manufacturer's instruction

[4] = tested on: hippocampal inositol phosphate; experiment: In vivo tissue inositol phosphate signaling pathway activation, hippocampus; set-up: species or system Long Evans Hooded rats; conditions: rat, Compound 3 1 mg/kg, antagonist 0.03 mg/kg
Protocol: as §1

anesthetized rats = experiment: Salivation after iontophoretic transdermal co-delivery of agonist and antagonist; type: in vivo, Long Evans Hooded rats; conditions: anesthetized rat, one patch with 1 mg Compound 3 plus 0.01 mg antagonist
Protocol: Experimental compounds and drug substances were delivered transdermally in rats using iontophoresis as follows. The fur was shaved from the backs of Long Evans Hooded rats weighing 225 to 325 grams, using electric clippers. Experimental compounds and drug substances were formulated at suitable concentrations an aqueous mixture of the following composition:
The polyvinyl alcohol/water was heated to 95 deg C. until it became clear, then the other constituents were added and mixed well. The mixture was introduced into suitable molds containing a disc-shaped cavity 2.2 cm diameter and 2.2 mm deep. Molds may be fabricated using two glass sheets separated by a silicone rubber sheet with suitable sized cavities and filling ports cut-outs. The molds were subject to 3 freeze-thaw cycles at −80 deg C. and 20 deg C. until a firm cryogel was obtained. The gels were separated from the molds and trimmed into a circular shape. The gel was placed in a silicone rubber casing with one face in contact with a circular silver foil anodic electrode (22 mm dia/250 microns thick), and the assembly was placed on the shaved skin of the rat such that the other face was in contact with the skin on one side of the back of the rat. The rubber casing formed a seal over and around the gel/electrode assembly. […] This was placed on the other side of the shaved back of the rat, the edges of the gel discs being about 20 mm apart at their nearest point. A DC voltage was applied across the two patches from a constant-current DC power supply and the voltage adjusted to obtain the desired current, such that the skin of the animal completed the electrical circuit.
The devices were placed on shaved backs of anesthetized rats and salivation was measured.
The animals were placed slightly head-down on an inclined, heated ramp. Rectal temperature was monitored using a thermocouple and the temperature of the heating pad was adjusted manually to maintain normal body temperature. Saliva was collected from the mouth by absorption onto pre-weighed slips of filter paper. The filter paper was changed periodically and the amount of saliva was measured by weighing the filter paper slips

[5] = molecular target: T1, human muscarinic M1 receptors (Homo sapiens, UniProt P11229); experiment: IP production in A9L cells with human M1 receptors (IPOne TR-FRET), Example 28; type: cell-based; conditions: for huM1/A9L Smax: percentage of maximal stimulation by carbachol; for huM1/A9L ED50 relative to CCh*: potency relative to carbachol at its EC50, semi-quantitative
T1 construct: host or cells: A9L cells
T1 sequence (P11229 1-460): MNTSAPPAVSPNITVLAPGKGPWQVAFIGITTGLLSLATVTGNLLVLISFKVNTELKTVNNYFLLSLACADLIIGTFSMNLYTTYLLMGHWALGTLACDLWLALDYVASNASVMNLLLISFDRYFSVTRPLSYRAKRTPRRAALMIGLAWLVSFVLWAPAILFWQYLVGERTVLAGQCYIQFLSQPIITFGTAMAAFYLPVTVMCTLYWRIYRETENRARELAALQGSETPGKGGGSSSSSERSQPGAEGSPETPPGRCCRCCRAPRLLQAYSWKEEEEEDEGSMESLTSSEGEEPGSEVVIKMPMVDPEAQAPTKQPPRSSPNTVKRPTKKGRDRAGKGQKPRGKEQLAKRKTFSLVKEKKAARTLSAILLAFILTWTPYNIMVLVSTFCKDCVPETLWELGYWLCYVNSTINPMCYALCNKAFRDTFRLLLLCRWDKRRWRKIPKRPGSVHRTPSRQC
Protocol: (§2) Muscarinic M1 and M3 agonist activity was evaluated by measuring the stimulation of inositol phosphate (IP) production in the presence of lithium chloride from A9L cells transfected with expression plasmids containing human muscarinic M1 and M3 receptors, respectively. The cell lines were a gift from Professor W Messer, and the methods were as described in Tejada F R et al. J. Med. Chem. 2006; 49: 7518-31 except that the assay was scaled down to run in 384 well plates, and IP was measured in the cell lysates using the non-isotopic IPOne TR-FRET assay (CIS-BIO, Inc).
(§3) Cells were grown to 90% confluence in 384 well hi-base plates (Greiner Bio-One), compounds were added at suitable concentrations in growth medium containing 10 mM LiCl, buffered with an extra 10 mM HEPES (pH7.4), and incubated for 60 minutes at 37° C. Cells were lysed and assayed for IP following the manufacturer's instructions.
(§4) The value for a full agonist is 100%, while partial agonists give values below 100%.

[6] = molecular target: T2, human muscarinic M3 receptors (Homo sapiens, UniProt P20309); experiment: IP production in A9L cells with human M3 receptors (IPOne TR-FRET), Example 28; type: cell-based; conditions: for huM3/A9L Smax: percentage of maximal stimulation by carbachol; for huM3/A9L ED50 relative to CCh*: potency relative to carbachol at its EC50, semi-quantitative
T2 construct: host or cells: A9L cells
Protocol: as §2, §3, §4

human FMO1 Supersomes = molecular target: T3, human FMO1 Supersomes (Homo sapiens, UniProt Q01740); experiment: Metabolism by flavin monoxygenase 1 (FMO1) Supersomes; type: in vitro ADME; conditions: after 6 hours (FIG. 2)
T3 construct: purchased BD Biosciences 456241
T3 sequence (Q01740 1-532): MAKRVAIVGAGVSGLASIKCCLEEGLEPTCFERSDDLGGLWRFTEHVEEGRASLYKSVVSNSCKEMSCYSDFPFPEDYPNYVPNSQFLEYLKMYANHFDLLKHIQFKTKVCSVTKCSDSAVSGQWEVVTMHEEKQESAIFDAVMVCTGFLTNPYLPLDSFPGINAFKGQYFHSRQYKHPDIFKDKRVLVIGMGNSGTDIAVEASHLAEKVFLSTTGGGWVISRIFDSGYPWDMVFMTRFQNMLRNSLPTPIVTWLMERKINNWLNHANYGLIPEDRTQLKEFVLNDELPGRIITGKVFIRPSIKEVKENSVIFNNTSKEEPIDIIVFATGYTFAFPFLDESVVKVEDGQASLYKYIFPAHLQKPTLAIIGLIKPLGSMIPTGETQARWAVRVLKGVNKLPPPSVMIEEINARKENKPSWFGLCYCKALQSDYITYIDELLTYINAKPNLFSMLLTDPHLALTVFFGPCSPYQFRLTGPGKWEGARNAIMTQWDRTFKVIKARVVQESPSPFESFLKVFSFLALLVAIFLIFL
Protocol: […] Aliquots were removed every 10 minutes, and 1% formic acid was added to halt the reaction. Samples were centrifuged, filtered through 0.2 micron spinfilter and the amount of each compound in the supernatants was quantitated using LC/MS/MS.

[7] = antagonist 0.03 mg/kg (FIGS. 8C, 8D)
[8] = tertiary amine antagonist 0.1 mg/kg (FIGS. 8C, 8D)

T2 sequence (P20309 whole entry): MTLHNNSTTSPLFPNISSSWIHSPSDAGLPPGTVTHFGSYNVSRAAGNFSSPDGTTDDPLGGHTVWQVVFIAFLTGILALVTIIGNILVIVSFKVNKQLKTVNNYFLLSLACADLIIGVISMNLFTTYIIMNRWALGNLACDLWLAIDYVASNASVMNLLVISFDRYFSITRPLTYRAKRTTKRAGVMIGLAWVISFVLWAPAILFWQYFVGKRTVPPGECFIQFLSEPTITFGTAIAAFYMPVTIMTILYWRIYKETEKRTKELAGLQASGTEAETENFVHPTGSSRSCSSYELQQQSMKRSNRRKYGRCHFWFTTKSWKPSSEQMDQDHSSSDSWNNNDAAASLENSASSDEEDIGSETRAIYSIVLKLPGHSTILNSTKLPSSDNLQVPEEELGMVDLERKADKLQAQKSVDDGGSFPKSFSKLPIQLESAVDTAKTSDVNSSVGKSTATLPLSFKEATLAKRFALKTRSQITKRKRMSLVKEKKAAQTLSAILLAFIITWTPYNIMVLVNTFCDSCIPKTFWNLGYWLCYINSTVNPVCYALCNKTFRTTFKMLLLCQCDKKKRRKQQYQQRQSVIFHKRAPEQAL

## [2H]C([2H])([2H])C([2H])([2H])c1noc(C2CN=CNC2)n1 (stereo not drawn) [Compound 2c, 3-(1,1,2,2,2-d5-ethyl)-5-(1,4,5,6-tetrahydropyrimidin-5-yl)-1,2,4-oxadiazole hydrochloride]
[1]
  Brain Cmax (10 mg/kg po) 1 hr MCD-386 = 1.00: 0.61
[2]
  Presence of metabolites (10 mg/kg po): No

## [2H]C([2H])(C)c1noc(C2CN=CNC2)n1 (stereo not drawn) [Compound 6c, 3-(1,1-d2-ethyl)-5-(1,4,5,6-tetrahydropyrimidin-5-yl)-1,2,4-oxadiazole hydrochloride]
[1]
  Brain Cmax (10 mg/kg po) 1 hr MCD-386 = 1.00: 0.82
[2]
  Presence of metabolites (10 mg/kg po): No

## C[N+]1(C)CCC(OC(=O)C(O)(c2ccccc2)C2CCCC2)C1 (stereo not drawn) [glycopyrrolate]
[3]; [7]
  block of increase in salivary gland inositol phosphate caused by Compound 3: can block
[3]
  inhibition of salivary gland inositol phosphate response to MCD-386: virtually completed inhibited
[4]
  effect on increase in hippocampal inositol phosphate caused by Compound 3: without blocking the increase in hippocampal inositol phosphate
Anesthetized rats
  reduction of salivation caused by transdermal iontophoretic delivery of Compound 3: greatly reduced

## CC(C)[N+](C)(CCOC(=O)C1c2ccccc2Oc2ccccc21)C(C)C [propantheline]
[3]; [7]
  block of increase in salivary gland inositol phosphate caused by Compound 3: can block
[3]
  inhibition of salivary gland inositol phosphate response to MCD-386: virtually completed inhibited
[4]
  effect on increase in hippocampal inositol phosphate caused by Compound 3: without blocking the increase in hippocampal inositol phosphate
Anesthetized rats
  reduction of salivation caused by transdermal iontophoretic delivery of Compound 3: greatly reduced

## Cc1noc(C2(F)CCCNC2)n1 (stereo not drawn) [Compound 35, 5-(3-fluoropiperidin-3-yl)-3-methyl-1,2,4-oxadiazole]
[5]
  huM1/A9L Smax: 81%
  huM1/A9L ED50 relative to CCh*: − (− potency <0.5-0.1x CCh)
[6]
  huM3/A9L Smax: 70%
  huM3/A9L ED50 relative to CCh*: −− (−− potency <0.1x CCh)
PAMPA test, Example 34; PAMPA
  Papp: 163 nm/s

## 3-methyl-5-(quinuclidin-3-yl)-1,2,4-oxadiazole [Compound 37]
[5]; huM1 versus huM3 A9L cells
  selectivity between M1 and M3 receptors: essentially non-selective between M1 and M3 receptors
[5]
  huM1/A9L Smax: 50-100%
  huM1/A9L ED50 relative to CCh*: ++ (++ potency >10x CCh)
[6]
  huM3/A9L Smax: 50-100%
  huM3/A9L ED50 relative to CCh*: ++ (++ potency >10x CCh)
Human FMO1 Supersomes
  extent of metabolism in FMO Supersomes (in words): almost completely metabolized
PAMPA test, Example 34; Table 14
  PAMPA Permeability Coefficient (×10^6): 3.02 ×10^6

## CCN(CC)CC#CCOC(=O)C(O)(c1ccccc1)C1CCCCC1 (stereo not drawn) [oxybutinin]
[3]; [8]
  block of increase in salivary gland inositol phosphate caused by Compound 3: less effective
[3]
  inhibition of salivary gland inositol phosphate response to MCD-386: less effective
Anesthetized rats
  reduction of salivation caused by transdermal iontophoretic delivery of Compound 3: reduced salivation, but were less effective

## NC(=O)C(c1ccccc1)(c1ccccc1)[C@@H]1CCN(CCc2ccc3c(c2)CCO3)C1 [darifenacin]
[3]; [8]
  block of increase in salivary gland inositol phosphate caused by Compound 3: less effective
[3]
  inhibition of salivary gland inositol phosphate response to MCD-386: less effective
Anesthetized rats
  reduction of salivation caused by transdermal iontophoretic delivery of Compound 3: reduced salivation, but were less effective
